# Test results: patent publication US5859067A, “Use of natural products and related synthetic compounds for the treatment of cardiovascular disease” (priority 1993, dated 1999)
# Values joined by “and” are separate entries in the source; they are usually repeats but may differ in a detail not shown here. Equal values may be shown once.
# Biological target: T1, human erythrocyte plasma membrane Ca^2+ -ATPase (Homo sapiens, UniProt P23634)
# T1 construct: Calmodulin-depleted erythrocyte membranes were prepared by continuous filtration through a hollow fibre; tissue New South Wales Red Cross Transfusion Service, Sydney; host or cells: human packed red blood cells (calmodulin-depleted erythrocyte membranes)
# T1 sequence (P23634 1-1205 isoform P23634-6): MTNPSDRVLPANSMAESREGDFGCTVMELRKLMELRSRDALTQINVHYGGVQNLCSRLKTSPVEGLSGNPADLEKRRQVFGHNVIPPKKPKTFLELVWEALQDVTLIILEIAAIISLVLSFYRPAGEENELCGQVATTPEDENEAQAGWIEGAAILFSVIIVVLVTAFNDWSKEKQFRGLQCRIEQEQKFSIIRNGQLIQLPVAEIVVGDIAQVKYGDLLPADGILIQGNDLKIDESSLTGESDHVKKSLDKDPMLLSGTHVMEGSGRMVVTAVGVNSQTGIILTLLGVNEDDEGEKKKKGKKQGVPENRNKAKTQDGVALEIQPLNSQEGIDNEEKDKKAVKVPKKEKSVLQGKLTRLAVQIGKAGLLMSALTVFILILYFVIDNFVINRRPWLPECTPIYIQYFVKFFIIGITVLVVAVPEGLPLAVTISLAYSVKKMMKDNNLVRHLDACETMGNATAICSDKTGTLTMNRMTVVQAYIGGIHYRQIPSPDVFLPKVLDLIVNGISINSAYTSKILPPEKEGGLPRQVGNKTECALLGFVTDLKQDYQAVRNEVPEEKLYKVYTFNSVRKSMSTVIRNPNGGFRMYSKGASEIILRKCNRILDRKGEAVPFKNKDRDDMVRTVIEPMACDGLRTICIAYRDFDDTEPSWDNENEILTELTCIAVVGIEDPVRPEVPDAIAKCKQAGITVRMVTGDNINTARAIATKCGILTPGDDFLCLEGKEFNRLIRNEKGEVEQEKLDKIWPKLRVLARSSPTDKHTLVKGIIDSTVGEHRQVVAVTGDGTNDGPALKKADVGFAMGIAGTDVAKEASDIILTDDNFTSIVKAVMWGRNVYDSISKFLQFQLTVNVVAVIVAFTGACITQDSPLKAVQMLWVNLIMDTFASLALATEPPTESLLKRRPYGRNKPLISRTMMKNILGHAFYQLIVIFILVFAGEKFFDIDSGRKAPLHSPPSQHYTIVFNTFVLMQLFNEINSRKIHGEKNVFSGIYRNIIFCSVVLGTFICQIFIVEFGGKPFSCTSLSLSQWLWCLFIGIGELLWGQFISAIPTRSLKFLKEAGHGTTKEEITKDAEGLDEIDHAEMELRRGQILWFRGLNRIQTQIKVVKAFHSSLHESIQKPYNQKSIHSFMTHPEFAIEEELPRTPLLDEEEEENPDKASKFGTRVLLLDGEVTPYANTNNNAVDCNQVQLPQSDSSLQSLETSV
# T1 sequence (P35613 140-385 partner limits assumed): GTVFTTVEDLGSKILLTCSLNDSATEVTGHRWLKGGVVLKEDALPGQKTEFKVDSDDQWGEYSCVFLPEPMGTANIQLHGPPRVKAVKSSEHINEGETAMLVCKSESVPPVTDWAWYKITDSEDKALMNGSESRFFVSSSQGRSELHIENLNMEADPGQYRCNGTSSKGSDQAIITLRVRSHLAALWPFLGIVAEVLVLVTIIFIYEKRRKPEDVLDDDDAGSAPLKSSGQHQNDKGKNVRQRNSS
# Assay: Ca^2+ -ATPase assay (microplate method), absence (-CaM) and presence (+CaM) of calmodulin (Table 1A)
# Type: biochemical
# Settings: absence of calmodulin; read-out: IC50 (-CaM)
# Experimental: Natural and synthetic compounds of formula (I) were tested for their ability to influence human erythrocyte plasma membrane Ca^2+ -ATPase. The enzyme Ca^2+ -ATPase in the human red blood cell plasma membrane has previously been studied and its stimulation by calmodulin and activation by lipids and proteolysis and its primary structure have been published (see Carafoli E (1991) Calcium pump of the plasma membrane, Physiological Reviews 71, 129-153.
# Calmodulin-depleted erythrocyte membranes were prepared by continuous filtration through a hollow fibre, Ashahi plasma separator as described by W S Price, B D Roufogalis, P W Kuchel (1989), A simple and inexpensive method for preparing erythrocyte membranes by filtration through a hollow-filter system, Anal. Biochem., 179, 190-193. Packed cells were obtained from the New South Wales Red Cross Transfusion Service, Sydney. The whole preparation was carried out at 4° C. 1 unit of packed red cells was washed 3 times with isotonic buffer, containing 130 mM KCl, 20 mM Tris-HCl (pH 7.4), and the cells were collected by centrifugation at 4,000 RPM. The cells were haemolysed by the buffer containing 1 mM EDTA, 10 mM Tris-Hcl (pH 7.4), 0.5 mM PMSF (phenylmethyl sulfonyl fluoride). The haemolyzate mixture was passed through the hollow fibre system until the membrane appeared white, and then washed with 10 mM potassium Hepes (pH 7.4). The membranes were collected by centrifugation at 10,000 RPM for 20 min, the membranes were resuspended in storage buffer containing 130 mM KCl, 2 mM dithiothreitol, 0.5 mM MgCl2, 20 mM potassium-Hepes (pH 7.5). The membranes with protein concentration of 1.5-5.4 mg/ml were stored at -80° C. until required.
# Erythrocyte membranes were incubated at 37° C. for one hour in a total volume of 60 μl of 65 mM KCl, 50 mM HEPES (pH=7.4), 5 mM MgCl2, 50 μM CaCl2, 0.1 mM EGTA and in absence and presence of calmodulin (0.3 μM). Test compounds were dissolved in dimethyl sulfoxide DMSO and 2 μl was added to the assay mixture prior the addition of ATP. The final concentration of DMSO in the assay mixture was 3%. The reaction was started by adding 2 mM ATP (pH=7.4). After 1 hour of incubation, colouring agent (180 μl) was added and incubated at 37° C. for 1/2 hrs. The phosphate liberated to the assay medium was determined spectrometrically using a microplate reader at 750 nm. The activity of the Mg^2+ -ATPase (assayed in the absence of added CaCl2) was subtracted from the total activity assayed in the presence of Ca^2+.
row,IC50,Compound
1,30 µM,"Oc1cccc(CCCCCCCCCCc2cccc(O)c2)c1 [1,10-bis(3-hydroxyphenyl)decane]"
2,26.5 µM,"C=C(C)C(CC=C(C)C)Cc1c(O)cc(O)c2c1OC(c1ccccc1O)CC2=O (stereo not shown) [5,7,6'-trihydroxy-8-lavandulylflavanone]"
3,45.3 µM,"C=C(C)C(CC=C(C)C)Cc1c(OC)cc(O)c2c1OC(c1c(O)cccc1O)CC2=O (stereo not shown) [5,2',6'-trihydroxy-8-lavandulyl-7-methoxyflavanone]"
4,25 µM,"Oc1ccc(CCCCCCCCCCCc2ccc(O)cc2O)c(O)c1 [1,11-bis(2,4-dihydroxyphenyl)undecane]"
5,12 µM,"Oc1ccc(CCCCCCCCCCCCc2ccc(O)cc2O)c(O)c1 [1,12-bis(2,4-dihydroxyphenyl)dodecane]"
6,20 µM,"C=C(C)C(CC=C(C)C)Cc1c(O)cc(O)c2c1OC(c1c(O)cccc1O)CC2=O (stereo not shown) [5,7,2',6'-tetrahydroxy-8-lavandulylflavanone]"
7,125 µM,CCCCCCCCCc1ccc(O)cc1O [4-nonylresorcinol]
8,400 µM,4-bromo-6-nonylresorcinol

# More lines, now with the values behind:
row,Compound,IC50
1,"Cc1ccc(CCCCCCCCCCc2ccc(C)cc2O)c(O)c1 [1,10-bis(2-hydroxy-4-methylphenyl)decane]",29 µM
2,"Oc1ccc(CCCCCCCCc2ccc(O)cc2O)c(O)c1 [1,8-bis(2,4-dihydroxyphenyl)octane]",50 µM
3,"CCCCCCCCCC(c1ccccc1O)c1ccccc1O [1,1-bis(2-hydroxyphenyl)decane]",74 µM
4,"Oc1ccc2ccccc2c1CCCCCCCCCCc1c(O)ccc2ccccc12 [1,10-bis(2-hydroxy-1-naphthyl)decane]",92 µM
5,"Oc1ccccc1CCCCCCCCCc1ccccc1O [1,9-bis(2-hydroxyphenyl)nonane]",13.5 µM
6,"Oc1ccccc1CCCCCCCCc1ccccc1O [1,8-bis(2-hydroxyphenyl)octane]",24 µM
7,"Cc1ccc(O)c(CCCCCCCCCCc2cc(C)ccc2O)c1 [1,10-bis(2-hydroxy-5-methylphenyl)decane]",22 µM
8,"Cc1cccc(CCCCCCCCCCc2cccc(C)c2O)c1O [1,10-bis(2-hydroxy-3-methylphenyl)decane]",50 µM

# Same assay, conditions: presence of calmodulin (0.3 μM); read-out: IC50 (+CaM)
row,IC50,Compound
1,32 µM,"Oc1cccc(CCCCCCCCCCc2cccc(O)c2)c1 [1,10-bis(3-hydroxyphenyl)decane]"
2,21.7 µM,"Oc1ccc(CCCCCCCCCCCc2ccc(O)cc2O)c(O)c1 [1,11-bis(2,4-dihydroxyphenyl)undecane]"
3,20 µM,"Oc1ccc(CCCCCCCCCCCCc2ccc(O)cc2O)c(O)c1 [1,12-bis(2,4-dihydroxyphenyl)dodecane]"
4,400 µM,4-bromo-6-nonylresorcinol

# Second part, the compound before the results:
row,Compound,IC50
1,"Cc1ccc(CCCCCCCCCCc2ccc(C)cc2O)c(O)c1 [1,10-bis(2-hydroxy-4-methylphenyl)decane]",29 µM
2,"Oc1ccc(CCCCCCCCc2ccc(O)cc2O)c(O)c1 [1,8-bis(2,4-dihydroxyphenyl)octane]",48 µM
3,"CCCCCCCCCC(c1ccccc1O)c1ccccc1O [1,1-bis(2-hydroxyphenyl)decane]",68 µM
4,"Oc1ccc2ccccc2c1CCCCCCCCCCc1c(O)ccc2ccccc12 [1,10-bis(2-hydroxy-1-naphthyl)decane]",90 µM
5,"Oc1ccccc1CCCCCCCCCc1ccccc1O [1,9-bis(2-hydroxyphenyl)nonane]",14 µM
6,"Oc1ccccc1CCCCCCCCc1ccccc1O [1,8-bis(2-hydroxyphenyl)octane]",24 µM
7,"Cc1ccc(O)c(CCCCCCCCCCc2cc(C)ccc2O)c1 [1,10-bis(2-hydroxy-5-methylphenyl)decane]",20.5 µM
8,"Cc1cccc(CCCCCCCCCCc2cccc(C)c2O)c1O [1,10-bis(2-hydroxy-3-methylphenyl)decane]",55 µM

# Test system: brine shrimp (Artemia salina Leach)
# Assay: Brine shrimp toxicity bioassay
# Type: in vivo
# Settings: 24 hours
# Experimental: There are many applications of the assay including analysis of toxic substances, anaesthetics, morphine-like substances and cocarcinogenicity of phorbol esters.
# 6 (K Hostettman, ed.), Academ Press, London, 1-32. DMSO solutions of the substances to be tested were added directly to the vials containing the brine shrimp. As the concentration of DMSO that we wished to use was higher than the recommended 1% v/v testing of the toxicity of the DMSO was therefore necessary.
# Brine shrimp toxicity was assayed, except for some minor modifications, according to the method of McLaughlin et al as reported in Brine Shrimp: A convenient general bioassay for active plant constituents, B N Meyer, N R Ferrigni, J E Putman, L B Jacobsen, D E Nhols and J L McLaughlin. […] J L McLaughlin. […] 6 (K Hostettman, ed.), Academ Press, London, 1-32. Ten shrimp were added transferred to each of the vials and the volume adjusted to 4.9 mL. Each dose was performed in triplicate, including the control. In quick succession, the appropriate volume of additional DMSO for each dose, required to achieve a final concentration of 2%, was added before the appropriate volume of test solution. The vials were gently mixed and the time noted. After 24 hours, the number of survivors were counted and % mortality was determined.
# The LC50 values were expressed in both μM and μg/mL.
row,Compound,toxicity to brine shrimp (in words)
1,"Cc1ccc(CCCCCCCCCCc2ccc(C)cc2O)c(O)c1 [1,10-bis(2-hydroxy-4-methylphenyl)decane]",reduced toxicity

# Same assay, conditions: Artemia salina; 24 hours; read-out: LC50 brine shrimp
row,Compound,LC50
1,"Cc1ccc(CCCCCCCCCCc2ccc(C)cc2O)c(O)c1 [1,10-bis(2-hydroxy-4-methylphenyl)decane]",14 µM and 5 µg/mL
2,"Oc1cccc(CCCCCCCCCCc2cccc(O)c2)c1 [1,10-bis(3-hydroxyphenyl)decane]",3 µM and 0.98 µg/mL
3,"Oc1ccc(CCCCCCCCc2ccc(O)cc2O)c(O)c1 [1,8-bis(2,4-dihydroxyphenyl)octane]",74 µM and 24 µg/mL
4,"Oc1ccc(CCCCCCCCCCCc2ccc(O)cc2O)c(O)c1 [1,11-bis(2,4-dihydroxyphenyl)undecane]",> 25 µM and > 9.3 µg/mL
5,"CCCCCCCCCC(c1ccccc1O)c1ccccc1O [1,1-bis(2-hydroxyphenyl)decane]",14 µM and 4.6 µg/mL
6,"Oc1ccc2ccccc2c1CCCCCCCCCCc1c(O)ccc2ccccc12 [1,10-bis(2-hydroxy-1-naphthyl)decane]",> 25 µM and > 11 µg/mL
7,"Oc1ccc(CCCCCCCCCCCCc2ccc(O)cc2O)c(O)c1 [1,12-bis(2,4-dihydroxyphenyl)dodecane]",14 µM and 5.4 µg/mL
8,"Oc1ccccc1CCCCCCCCc1ccccc1O [1,8-bis(2-hydroxyphenyl)octane]",3 µM and 0.89 µg/mL
9,"C=C(C)C(CC=C(C)C)Cc1c(O)cc(O)c2c1OC(c1c(O)cccc1O)CC2=O (stereo not shown) [5,7,2',6'-tetrahydroxy-8-lavandulylflavanone]",> 100 µM and > 42 µg/mL
10,CCCCCCCCCc1ccc(O)cc1O [4-nonylresorcinol],10 µM and 2.4 µg/mL
11,"Cc1cccc(CCCCCCCCCCc2cccc(C)c2O)c1O [1,10-bis(2-hydroxy-3-methylphenyl)decane]",5.8 µM and 2.1 µg/mL
